Assay results taken from ChEMBL document CHEMBL3603789, “N-Lipidated Peptide Dimers: Effective Antibacterial Agents against Gram-Negative Pathogens through Lipopolysaccharide Permeabilization” (J Med Chem, 2015).
Converted amounts (≈) assume the structure as drawn. Peptide text beside a SMILES is read from it. * marks the point of attachment. Myristoyl = CCCCCCCCCCCCCC(=O)*; Lauroyl = CCCCCCCCCCCC(=O)*; Octanoyl = CCCCCCCC(=O)*; Hexanoyl = CCCCCC(=O)*; Butyryl = CCCC(=O)*

Assays:
[1] = test system: Klebsiella pneumoniae; assay: Antibacterial activity against Klebsiella pneumoniae DM4299 after 24 hrs by broth microdilution method; format: functional; conditions: DM4299, 24 h
[2] = test system: Pseudomonas aeruginosa; assay: Antibacterial activity against Pseudomonas aeruginosa DM23155 after 24 hrs by broth microdilution method; format: functional; conditions: DM23155, 24 h
[3] = Toxicity in New Zealand white rabbit erythrocytes assessed as hemolytic activity after 60 mins; format: cell-based, Oryctolagus cuniculus; conditions: erythrocyte, 1 h
[4] = test system: Escherichia coli; assay: Antibacterial activity against Escherichia coli ATCC 25922 after 24 hrs by broth microdilution method; format: functional; conditions: ATCC 25922, 24 h
[5] = test system: Lipopolysaccharide (LPS); assay: Induction of Escherichia coli 0111:B4 LPS neutralization using p-nitroaniline assessed as concentration required to neutralize 50% after 1 hr by limulus amebocyte lysate assay
[6] = test system: Lipopolysaccharide (LPS); assay: Displacement of dansylcadaverine from Escherichia coli 0111:B4 LPS at 15 to 30 uM after 5 mins by high-throughput fluorescence displacement assay

Row | SMILES | MIC [1] [µM] | MIC [2] [µM] | MIC [4] [µM] | EC50 [5] [µM] | Activity [6] [%] | HC10 [3] [µg/mL]
1 | CCCC(=O)N[C@@H](CCCNC(=N)N)C(=O)NCC(=O)N[C@@H](CCCNC(=N)N)C(=O)N[C@@H](CCCCN)C(=O)NCC(=O)NCC(=O)N[C@@H](CCCNC(=N)N)C(=O)N[C@@H](CCCNC(=N)N)C(=O)N[C@@H](CCCCN)C(=O)N[C@@H](CCCCN)C(=O)O (Butyryl-RGRKGGRRKK-OH) | 80 (≈ 101 µg/mL) | 80 (≈ 101 µg/mL) | 40 (≈ 50.7 µg/mL) |  |  | > 10000
2 | CC(=O)N[C@@H](CCCNC(=N)N)C(=O)NCC(=O)N[C@@H](CCCNC(=N)N)C(=O)N[C@@H](CCCCN)C(=O)N[C@H](C(=O)N[C@H](C(=O)N[C@@H](CCCNC(=N)N)C(=O)N[C@@H](CCCNC(=N)N)C(=O)N[C@@H](CCCCN)C(=O)N[C@@H](CCCCN)C(=O)O)C(C)C)C(C)C (Ac-RGRKVVRRKK-OH) | > 80 | > 80 | 40 (≈ 53 µg/mL) |  |  | > 10000
3 | CCCCCC(=O)N[C@@H](CCCNC(=N)N)C(=O)NCC(=O)N[C@@H](CCCNC(=N)N)C(=O)N[C@@H](CCCCN)C(=O)NCC(=O)NCC(=O)N[C@@H](CCCNC(=N)N)C(=O)N[C@@H](CCCNC(=N)N)C(=O)N[C@@H](CCCCN)C(=O)N[C@@H](CCCCN)C(=O)O (Hexanoyl-RGRKGGRRKK-OH) | > 80 | > 80 | 20 (≈ 25.9 µg/mL) |  |  | > 10000
4 | CC(=O)N[C@@H](CCCNC(=N)N)C(=O)NCC(=O)N[C@@H](CCCNC(=N)N)C(=O)N[C@@H](CCCCN)C(=O)NCC(=O)NCC(=O)N[C@@H](CCCNC(=N)N)C(=O)N[C@@H](CCCNC(=N)N)C(=O)N[C@@H](CCCCN)C(=O)N[C@@H](CCCCN)C(=O)O (Ac-RGRKGGRRKK-OH) | > 80 | > 80 | 20 (≈ 24.8 µg/mL) |  |  | > 10000
5 | CCCCCCCCCCCC(=O)N[C@@H](CCCNC(=N)N)C(=O)NCC(=O)N[C@@H](CCCNC(=N)N)C(=O)N[C@@H](CCCCN)C(=O)NCC(=O)NCC(=O)N[C@@H](CCCNC(=N)N)C(=O)N[C@@H](CCCNC(=N)N)C(=O)N[C@@H](CCCCN)C(=O)N[C@@H](CCCCN)C(=O)O (Lauroyl-RGRKGGRRKK-OH) | 10 (≈ 13.8 µg/mL) | 6 (≈ 8.28 µg/mL) | 6 (≈ 8.28 µg/mL) |  |  | 8602

More lines, main results first:

Row | MIC [1] [µM] | MIC [2] [µM] | MIC [4] [µM] | EC50 [5] [µM] | Activity [6] [%] | SMILES | HC10 [3] [µg/mL]
6 | 20 (≈ 29.3 µg/mL) | 10 (≈ 14.6 µg/mL) | 6 (≈ 8.79 µg/mL) |  |  | CCCCCCCCCCCC(=O)N[C@@H](CCCNC(=N)N)C(=O)NCC(=O)N[C@@H](CCCNC(=N)N)C(=O)N[C@@H](CCCCN)C(=O)N[C@H](C(=O)N[C@H](C(=O)N[C@@H](CCCNC(=N)N)C(=O)N[C@@H](CCCNC(=N)N)C(=O)N[C@@H](CCCCN)C(=O)N[C@@H](CCCCN)C(=O)O)C(C)C)C(C)C (Lauroyl-RGRKVVRRKK-OH) | > 10000
7 | 80 (≈ 110 µg/mL) | 80 (≈ 110 µg/mL) | 10 (≈ 13.8 µg/mL) |  |  | CCCCCC(=O)N[C@@H](CCCNC(=N)N)C(=O)NCC(=O)N[C@@H](CCCNC(=N)N)C(=O)N[C@@H](CCCCN)C(=O)N[C@H](C(=O)N[C@H](C(=O)N[C@@H](CCCNC(=N)N)C(=O)N[C@@H](CCCNC(=N)N)C(=O)N[C@@H](CCCCN)C(=O)N[C@@H](CCCCN)C(=O)O)C(C)C)C(C)C (Hexanoyl-RGRKVVRRKK-OH) | > 10000
8 | 6 (≈ 8.96 µg/mL) | 10 (≈ 14.9 µg/mL) | 6 (≈ 8.96 µg/mL) |  |  | CCCCCCCCCCCCCC(=O)N[C@@H](CCCNC(=N)N)C(=O)NCC(=O)N[C@@H](CCCNC(=N)N)C(=O)N[C@@H](CCCCN)C(=O)N[C@H](C(=O)N[C@H](C(=O)N[C@@H](CCCNC(=N)N)C(=O)N[C@@H](CCCNC(=N)N)C(=O)N[C@@H](CCCCN)C(=O)N[C@@H](CCCCN)C(=O)O)C(C)C)C(C)C (Myristoyl-RGRKVVRRKK-OH) | 8897
9 | > 80 | 10 (≈ 14.1 µg/mL) | 6 (≈ 8.45 µg/mL) | > 1000 | 69.9 | CCCCCCCC(=O)N[C@@H](CCCNC(=N)N)C(=O)NCC(=O)N[C@@H](CCCNC(=N)N)C(=O)N[C@@H](CCCCN)C(=O)N[C@H](C(=O)N[C@H](C(=O)N[C@@H](CCCNC(=N)N)C(=O)N[C@@H](CCCNC(=N)N)C(=O)N[C@@H](CCCCN)C(=O)N[C@@H](CCCCN)C(=O)O)C(C)C)C(C)C (Octanoyl-RGRKVVRRKK-OH) | > 10000
